Several values for one entry are separate records, joined by “and”; a condition that tells them apart may be missing. Equal values may be shown once. Read-outs that look alike come from different tables or passages of the source.
What was measured:
[1] = Phase 2 (NCT04116437): recurrence and change in severity of ibrutinib/acalabrutinib intolerance events on zanubrutinib; assay type: in vivo, human
Excerpt: The primary endpoints were the recurrence and the change in severity of ibrutinib and acalabrutinib intolerance events compared with corresponding treatment-emergent adverse events within each patient. In this document, the term “adverse event” refers to a “treatment-emergent adverse event” unless otherwise stated. Hereafter, the full “treatment-emergent adverse event” was not used.
Intolerance was defined as an unacceptable toxicity such that treatment should be discontinued per investigator opinion despite optimal supportive care.
If while on zanubrutinib a patient experienced the same adverse event that led to their intolerance to ibrutinib, the patient was said to experience a recurrence of an ibrutinib intolerant event. […] Otherwise, the severity was said to be the same. For acalabrutinib intolerant events, recurrence and change in severity were defined similarly.
Primary endpoint was the recurrence and change in severity of intolerance events per protocol.
The study design comprised two cohorts. […] Patients were not allowed to switch schedule during the study.

[2] = Phase 1 DDI study: single-dose zanubrutinib PK alone and with steady-state rifabutin (NCT04470908); assay type: in vivo, human; details: for half-life: arithmetic mean (SD)
Excerpt: This study was designed, conducted, and monitored according to sponsor procedures, and complied with the ethical principles of Good Clinical Practice, International Council for Harmonisation of Technical Requirements for Pharmaceuticals for Human Use, the Declaration of Helsinki, and local regulatory requirements. All volunteers provided written, informed consent before study entry. Midlands Independent Review Board (MLIRB (now WCG IRB), Overland Park, Kansas) reviewed and approved the protocol at the respective study center.
Volunteers were screened for eligibility during the screening period (from day −28 through day −2). Those who met all the inclusion criteria and none of the exclusion criteria were admitted into the clinical research unit (CRU) on day −1 and confined to the CRU until discharge on day 13. […] Volunteers were discharged on day 13 after satisfactory completion of study-related procedures.
A single dose of rifabutin (300 mg) was given orally as 2×150 mg capsules with food on days 3-10 and in the fasted state on day 11.
Noncompartmental analysis was conducted using Phoenix® WinNonlin™ version 8.1 (Certara USA, Inc., Princeton, New Jersey, USA).
Protein precipitation was utilized to extract the analyte and internal standard from human plasma containing dipotassium ethylenediaminetetraacetic acid (K2EDTA) as an anticoagulant.
The geometric least squares mean (GLSM) and their ratios were obtained by taking the exponential of the corresponding estimates of LSM and their differences on the natural logarithm scale, where ratio=test/reference. Within-subject CV was calculated as 100×square root[exp(mean square error from the analysis model)−1].

[3] = multiple doses of a moderate CYP3A inhibitor; cited from earlier work
[4] = 320 mg zanubrutinib + 300 mg rifabutin (test)
[5] = 320 mg zanubrutinib + 300 mg rifabutin, median (min-max)

In the case of `C=CC(=O)N1CCC([C@@H]2CCNc3c(C(N)=O)c(-c4ccc(Oc5ccccc5)cc4)nn32)CC1` [zanubrutinib, (S)-7-(1-acryloylpiperidin-4-yl)-2-(4-phenoxyphenyl)-4,5,6,7-tetrahydropyrazolo[1,5-a]pyrimidine-3-carboxamide], the “Patients with acalabrutinib-intolerance event recurrence who discontinued zanubrutinib” value ([1]; 3 patients) is reported as 66.7%, the “Recurring acalabrutinib-intolerance events at lower severity” value ([1]; 3 recurring events) is reported as 33.3% and 33.0% and the “Recurring acalabrutinib-intolerance events at same severity” value ([1]; 3 recurring events) is reported as 66.6% and 66.7%. For the same compound, the “Grade 3 acalabrutinib-intolerance events that recurred” value ([1]; 4 grade 3 events) was 25.0%, the “Patients without recurrence of acalabrutinib-intolerance events” value ([1]; 10 patients) was 70.0% and the “Recurring grade 3 ibrutinib-intolerance events at lower severity” value ([1]; 13 events) was 92.3%. For the same compound, the “Recurring grade 3 ibrutinib-intolerance events at same severity” value ([1]; 13 events) was 7.7%, the “Acalabrutinib-intolerance events that did not recur” value ([1]; 18 events) was 83.3% and the “Acalabrutinib-intolerance events that recurred: arthralgia” value ([1]; 18 events) was 5.6%. The “Acalabrutinib-intolerance events that recurred: myalgia” value ([1]; 18 events) was 11.1%, the “Patients with recurrent ibrutinib-intolerance event who discontinued zanubrutinib” value ([1]; 25 patients) was 24.0% and the “Recurring ibrutinib-intolerance events at lower severity” value ([1]; 34 recurring events) was 79.4%. The “Recurring ibrutinib-intolerance events at same severity” value ([1]; 34 recurring events) was 20.6%, the “Grade 3 ibrutinib-intolerance events that recurred” value ([1]; 38 grade 3 events) was 34.2% and the “Patients without recurrence of ibrutinib-intolerance event” value ([1]; 62 patients) was 59.7%. The “Ibrutinib-intolerance events that did not recur” value ([1]; 115 events) was 70.4%, the “Intolerance events that did not recur” value ([1]; 141 intolerance events) was 68.1% and the “Patients with reoccurrence of previously intolerant adverse event(s)” value ([1]; all patients) was 44.4%. For the same compound, the “Patients without any recurrence of intolerance event(s)” value ([1]; all patients (clinical study report cut-off)) was 56.6%, the “Median time to first recurrence of ibrutinib-intolerance event” value ([1]; in vivo) was 61 days and the “AUC0-t GLSM” value ([2]; 320 mg zanubrutinib (reference)) was 2700 ng·h/mL. The “AUC0-t GLSM” value [2, 4] was 1530 ng·h/mL, the “Cmax GLSM” value [2, 4] was 253 ng/mL and the Tlast [2, 5] was 36.0 (24.0-36.0) [13] h. The Tmax [2, 5] was 2.0 h, the Tlast ([2]; 320 mg zanubrutinib alone, median (min-max)) was 36.0 (24.0-36.0) [13] h and the AUC(0-t) ([2]; human, plasma, oral, 320 mg) was 2700 ng·h/mL. The Cmax ([2]; human, plasma, oral, 320 mg) was 489 ng/mL, the Vd/F ([2]; human, plasma, oral, 320 mg) was 1080 L and the AUC(0-inf) ([2]; human, plasma, oral, 320 mg zanubrutinib + 300 mg rifabutin (test), read-out: AUC0-∞ GLSM) was 1560 ng·h/mL. For the same compound, the half-life ([2]; human, plasma, oral, 320 mg zanubrutinib + 300 mg rifabutin) was 7 h, the AUC(0-inf) ([2]; human, plasma, oral, 320 mg zanubrutinib + 300 mg rifabutin, geometric mean (CV), read-out: AUC0-∞) was 1590 ng·h/mL and the AUC(0-inf) ([2]; human, plasma, oral, 320 mg, 320 mg zanubrutinib (reference), read-out: AUC0-∞ GLSM) was 2780 ng·h/mL. It also gave a half-life ([2]; human, plasma, oral, 320 mg, 320 mg zanubrutinib alone) of 7.2 h, an AUC(0-inf) ([2]; human, plasma, oral, 320 mg, 320 mg zanubrutinib alone, geometric mean (CV), read-out: AUC0-∞) of 2780 ng·h/mL and a Tmax ([2]; human, plasma, oral, 320 mg, read-out: Tmax) of 1.5 h. For the same compound, the “AUC0-t within-subject CV” value ([2]; in vivo) was 10.7%, the “AUC0-∞ within-subject CV” value ([2]; in vivo) was 7.0% and the “Cmax within-subject CV” value ([2]; in vivo) was 23.2%. For the same compound, the “Reduction in zanubrutinib exposure” value ([2]; with moderate CYP3A inducer, e.g. rifabutin) was “approximately 2 fold”, the “GMR (exposure)” value ([2]; with vs without rifabutin) was 57% and the “Increase in zanubrutinib Cmax and AUC” value [3] was 2- to 3 fold and 2 to 3 fold.

From patent US11911386B2, “Methods of treating B-cell proliferative disorder” (BeiGene Switzerland GmbH, priority 2022, dated 2024)
